# pIC50: −log10 of the molar value. Structures can show the parent of a compound that is named as a salt.
# Molecular target: T1, human VR1 (Homo sapiens, UniProt Q8NER1)
# T1 construct: expressed in transfected cells
# Assay: Inhibition of Ca2+ entry in cells caused by proton (VR1 agonist)
# Assay type: cell-based
# Details: Rat glioma (C6BU1) cells stably expressing human VR1; proton stimulation to pH 5.5; Fura 2-AM fluorescence; read-out: In vitro IC50
# Experimental: The assay for evaluation of VR1 inhibition by the inventive compounds will be described below. The assay was intended to evaluate in vitro inhibition of Ca^2+ entry in cells caused by proton, one of the VR1 agonists.
# Rat glioma (C6BU1) cells stably expressing human VR1 were suspended in 20 mM MES buffer (at pH 6.8, contg. 20 mM 2-morpholinoethanesulfonate (referred to as MES hereinafter), 115 mM NaCl, 5 mM KCl, 1 mM MgCl2 and 14 mM D-glucose) to make a cell density of 1×10^6 cells/mL. A fluorescent dye, Fura 2-AM solution (Dojindo Corporate, Cat. No. 343-05401) was added to the suspension to make a 5 μM concentration thereof. Further, Pluronic F-127 (Wako Pure Chemical Industries, Ltd., Cat. No. P6866) was added to make a 0.1% content thereof. Then, the suspension was incubated at 37° C. for 30 min. The cells were harvested and washed three times with 20 mM MES buffer. The cells were suspended again to make a cell density of 5×10^5 cells/mL. A 500-μL portion of the suspension was taken with a cuvette (MC MEDICAL, INC., Cat. No. SSR3121), to which […] MES buffer containing 250 mM CaCl2 was added to incorporate Ca^2+ into the cells. At the same time, 5 μL of a test compound solution (in a range of 100 μM to 10 nM in DMSO) was also added to provide a final concentration thereof in a range of 1 μM to 0.1 nM. Alternatively, 5 μl of DMSO was added as control to provide a final concentration of 1% DMSO. The suspension was set in an intracellular ionometer (CAF-110; JASCO) 10 min after those additions. The cells were stimulated with protons by addition of 60 μL of 20 mM MES buffer at pH 1.1 to the suspension to set its pH at 5.5. The activity of the test compound was determined as a difference between the minimum of fluorescence intensity before agonist stimulation and its maximum after the stimulation. The value of IC50 was derived from percentage of inhibition by the test compound compared with the control.
# T1 sequence (Q8NER1 whole entry): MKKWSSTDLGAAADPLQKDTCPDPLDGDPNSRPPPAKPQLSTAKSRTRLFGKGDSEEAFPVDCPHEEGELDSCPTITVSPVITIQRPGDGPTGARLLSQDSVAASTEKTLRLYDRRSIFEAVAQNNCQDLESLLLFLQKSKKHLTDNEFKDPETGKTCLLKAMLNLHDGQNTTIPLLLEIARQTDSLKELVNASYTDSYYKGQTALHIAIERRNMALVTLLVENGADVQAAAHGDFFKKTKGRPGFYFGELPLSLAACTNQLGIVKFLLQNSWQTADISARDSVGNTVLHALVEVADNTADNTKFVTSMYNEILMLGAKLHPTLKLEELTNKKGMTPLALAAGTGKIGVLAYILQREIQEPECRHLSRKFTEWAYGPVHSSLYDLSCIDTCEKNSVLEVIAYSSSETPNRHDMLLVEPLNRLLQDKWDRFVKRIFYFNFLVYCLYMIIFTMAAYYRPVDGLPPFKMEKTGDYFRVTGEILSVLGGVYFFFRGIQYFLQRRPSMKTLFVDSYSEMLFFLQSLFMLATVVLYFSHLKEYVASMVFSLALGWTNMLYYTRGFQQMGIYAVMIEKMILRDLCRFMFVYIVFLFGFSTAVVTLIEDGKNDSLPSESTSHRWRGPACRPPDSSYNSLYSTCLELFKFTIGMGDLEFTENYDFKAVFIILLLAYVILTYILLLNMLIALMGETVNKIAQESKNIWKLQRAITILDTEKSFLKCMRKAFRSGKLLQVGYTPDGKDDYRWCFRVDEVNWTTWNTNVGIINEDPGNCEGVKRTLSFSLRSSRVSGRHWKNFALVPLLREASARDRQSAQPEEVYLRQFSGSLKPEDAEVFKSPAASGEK
row,SMILES,pIC50
1,"O=C(Nc1ccc(Cl)c(C(F)(F)F)c1)c1ccc(Cl)c(N(CCO)c2ncccc2Cl)c1 [Example 39, 4-chloro-3-[N-(3-chloropyridin-2-yl)-N-(2-hydroxyethyl)amino]-N-(4-chloro-3-trifluoromethylphenyl)benzamide]",≥ 7.00
2,"CC(C)(C)c1ccc(NC(=O)c2ccc(Cl)c(N(CC(N)=O)c3ncccc3Cl)c2)cc1 [Example 47, 4-chloro-3-[N-(3-chloropyridin-2-yl)-N-(carbamoylmethyl)amino]-N-(4-tert-butylphenyl)-benzamide]",≥ 7.00
3,"CN(c1cc(C(=O)Nc2ccc(C(C)(C)C)cc2)ccc1OCCO)c1ncccc1Cl [Example 18, N-(4-tert-butylphenyl)-3-[N-(3-chloropyridin-2-yl)-N-methyl-amino]-4-(2-hydroxyethyl)oxybenzamide]",≥ 7.00
4,"COCOc1ccc(C(=O)Nc2ccc(C(C)(C)C)cc2)cc1N(C)c1ncccc1Cl [Example 14, N-(4-tert-butylphenyl)-3-[N-(3-chloropyridin-2-yl)-N-methyl-amino]-4-methoxymethyloxybenzamide]",≥ 7.00
5,"CN(c1cc(C(=O)Nc2ccc(C(F)(F)F)cc2)ccc1Cl)c1ncc(CO)cc1Cl [Example 79, 4-chloro-3-[N-(3-chloro-5-hydroxymethylpyridin-2-yl)-N-methyl-amino]-N-(4-trifluoromethylphenyl)-benzamide]",≥ 7.00
6,"CC(C)(C)c1ccc(NC(=O)c2cccc(N(CCO)c3ncccc3Cl)c2)cc1 [Example 53, N-(4-tert-butylphenyl)-3-[N-(3-chloropyridin-2-yl)-N-(2-hydroxyethyl)amino]-benzamide]",≥ 7.00
7,"COc1ccc(C(=O)Nc2ccc(C(C)(C)C)cc2)cc1N(C)c1ncccc1Cl [Example 4, N-(4-tert-butylphenyl)-3-[N-(3-chloropyridin-2-yl)-N-methyl]amino-4-methoxybenzamide]",≥ 7.00
8,"CN(c1cc(C(=O)Nc2ccc(C(C)(C)C)cc2)ccc1Cl)c1ncc(C(N)=O)cc1Cl [Example 75, 6-{[5-(4-tert-butylphenylcarbamoyl)-2-chlorophenyl]-methyl-amino}-5-chloronicotinamide]",≥ 7.00
9,"CN(C)C(=O)COc1ccc(C(=O)Nc2ccc(C(C)(C)C)cc2)cc1N(C)c1ncccc1Cl [Example 22, N-(4-tert-butylphenyl)-3-[N-(3-chloropyridin-2-yl)-N-methyl-amino]-4-(N,N-dimethylcarbamoylmethyl)oxybenzamide]",6.00 to 7.00
10,"Cc1ccc(C(=O)Nc2ccc(C(C)(C)C)cc2)cc1N(C)c1ncccc1Cl [Example 7, N-(4-tert-butylphenyl)-3-[N-(3-chloropyridin-2-yl)-N-methyl-amino]-4-methylbenzamide]",≥ 7.00
11,"CN(c1ccccn1)c1cc(C(=O)Nc2ccc(C(C)(C)C)cc2)ccc1Cl [Example 13, N-(4-tert-butylphenyl)-4-chloro-3-[N-(pyridin-2-yl)-N-methyl-amino]benzamide]",6.00 to 7.00
12,"CN(c1cc(C(=O)Nc2ccc(C(F)(F)F)cc2)ccc1F)c1ncc(CO)cc1Cl [Example 82, 3-[N-(3-chloro-5-hydroxymethylpyridin-2-yl)-N-methyl-amino]-4-fluoro-N-(4-trifluoromethylphenyl)-benzamide]",≥ 7.00
13,"O=C(Nc1ccc(OC(F)(F)F)cc1)c1ccc(Cl)c(N(CCO)c2ncccc2Cl)c1 [Example 32, 4-chloro-3-[N-(3-chloropyridin-2-yl)-N-(2-hydroxyethyl)amino]-N-(4-trifluoromethoxyphenyl)benzamide, hydrochloride salt]",≥ 7.00
14,"CC(C)Oc1ccc(NC(=O)c2ccc(Cl)c(N(CCO)c3ncccc3Cl)c2)cc1 [Example 41, 4-chloro-3-[N-(3-chloropyridin-2-yl)-N-(2-hydroxyethyl)amino]-N-(4-isopropyloxyphenyl)-benzamide]",≥ 7.00
15,"CN(c1cc(C(=O)Nc2ccc(C(C)(C)C)cc2)ccc1Cl)c1ncccc1Cl [Example 12, N-(4-tert-butylphenyl)-4-chloro-3-[N-(3-chloropyridin-2-yl)-N-methyl-amino]benzamide]",≥ 7.00
16,"CC(C)(C)c1ccc(NC(=O)c2ccc(Cl)c(N(CCCO)c3ncccc3Cl)c2)cc1 [Example 45, 4-chloro-3-[N-(3-chloropyridin-2-yl)-N-(3-hydroxypropyl)amino]-N-(4-tert-butylphenyl)-benzamide]",≥ 7.00
17,"CN(c1cc(C(=O)Nc2ccc(C(C)(C)C)cc2)ccc1Oc1ccccc1)c1ncccc1Cl [Example 5, N-(4-tert-butylphenyl)-3-[N-(3-chloropyridin-2-yl)-N-methyl]amino-4-phenoxybenzamide]",≥ 7.00
18,"CN(c1cc(C(=O)Nc2ccc(OC(F)(F)F)cc2)ccc1Cl)c1ncc(CO)cc1Cl [Example 81, 4-chloro-3-[N-(3-chloro-5-hydroxymethylpyridin-2-yl)-N-methyl-amino]-N-(4-trifluoromethoxyphenyl)-benzamide]",≥ 7.00
19,"CC(C)COc1ccc(NC(=O)c2ccc(Cl)c(N(CC(N)=O)c3ncccc3Cl)c2)cc1 [Example 61, 4-chloro-3-[N-(3-chloropyridin-2-yl)-N-(carbamoylmethyl)amino]-N-(4-isobutyloxyphenyl)-benzamide]",≥ 7.00
20,"CNC(=O)c1cnc(N(C)c2cc(C(=O)Nc3ccc(C(C)(C)C)cc3)ccc2Cl)c(Cl)c1 [Example 76, 6-{[5-(4-tert-butylphenylcarbamoyl)-2-chlorophenyl]-methyl-amino}-5-chloro-N-methylnicotinamide]",6.00 to 7.00
21,"O=C(Nc1ccc(Cl)cc1)c1ccc(Cl)c(N(CCO)c2ncccc2Cl)c1 [Example 36, 4-chloro-N-(4-chlorophenyl)-3-[N-(3-chloropyridin-2-yl)-N-(2-hydroxyethyl)amino]-benzamide]",≥ 7.00
22,"CC(C)(C)c1ccc(NC(=O)c2ccc(Cl)c(N(CC(=O)O)c3ncccc3Cl)c2)cc1 [Example 46, N-(3-chloropyridin-2-yl)-N-{2-chloro-5-[N-(4-tert-butylphenyl)carbamoyl]phenyl}-aminoacetic acid]",≥ 7.00
23,"CN(c1cccc(C(=O)Nc2ccc(C(C)(C)C)cc2)c1)c1ncccc1Cl [Example 1, N-(4-tert-butylphenyl)-3-[N-(3-chloropyridin-2-yl)-N-methyl-amino]benzamide, hydrochloride salt]",≥ 7.00
24,"O=C(Nc1ccc(C(F)(F)F)cc1)c1ccc(Cl)c(N(CCO)c2ncccc2Cl)c1 [Example 31, 4-chloro-3-[N-(3-chloropyridin-2-yl)-N-(2-hydroxyethyl)amino]-N-(4-trifluoromethylphenyl)-benzamide, hydrochloride salt]",≥ 7.00
25,"CN1c2cc(C(=O)Nc3ccc(C(C)(C)C)cc3)ccc2Oc2cccnc21 [Example 17, N-(4-tert-butylphenyl)-10-methyl-10H-benzo[b]pyrido[2,3-e][1,4]oxazine-8-carboxamide]",≥ 7.00
26,"NC(=O)CN(c1cc(C(=O)Nc2ccc(N3CCCCC3)c(F)c2)ccc1Cl)c1ncccc1Cl [Example 62, 4-chloro-3-[N-(3-chloropyridin-2-yl)-N-(carbamoylmethyl)amino]-N-(3-fluoro-4-piperidinophenyl)-benzamide]",≥ 7.00
27,"CC(C)COc1ccc(NC(=O)c2ccc(Cl)c(N(CCO)c3ncccc3Cl)c2)cc1 [Example 35, 4-chloro-3-[N-(3-chloropyridin-2-yl)-N-(2-hydroxyethyl)amino]-N-(4-isobutyloxyphenyl)benzamide, hydrochloride salt]",≥ 7.00
28,"O=C(Nc1ccc(C(F)(F)F)cc1)c1cccc(N(CCO)c2ncccc2Cl)c1 [Example 54, 3-[N-(3-chloropyridin-2-yl)-N-(2-hydroxyethyl)amino]-N-(4-trifluoromethylphenyl)-benzamide]",≥ 7.00

# Reference: patent publication US20120115827A1, “3-AMINOBENZAMIDE COMPOUNDS AND VANILLOID RECEPTOR SUBTYPE 1 (VR1) INHIBITORS” (Japan Tobacco Inc., priority 2004, published 2012)
